Data published in PubChem BioAssay AID1845198 (Molecular Pharmacology Branch, DTP, NCI, 2023).

Test system: 425362-245-T-J1 tumor spheroids, viability % test/control
Test: Anticancer human tumor 425362-245-T-J1 patient-derived melanoma cell line growth inhibition
Settings: spheroids with HUVEC and MSC; for IC50: curve of first compound; for viability, T/C: stronger effect = lower value
Description: Multicellular complex tumor spheroid response to DNA repair inhibitors in combination with DNA-damaging drugs
This study explores the anticancer activities of DNA-damaging drugs and inhibitors of DNA damage repair, both as single agents and in combinations. Complex tumor spheroids comprised of malignant cells, endothelial cells and mesenchymal stem cells served as an in vitro model for human solid tumors. This model system incorporates physiologically relevant features and patient-derived or established malignant cell lines with clinically relevant genetic alterations from many tumor types. Twenty-six patient-derived or established malignant cell lines were evaluated representing sarcoma, melanoma, small cell lung cancer (SCLC), non-small cell lung cancer (NSCLC), as well as bladder, ovarian and pancreatic cancers. The concentration ranges selected for each drug and investigational agent were based upon clinically achievable concentrations if the clinical Cmax of the agent was known.
Compounds. The drugs and compounds olaparib (NSC753686), talazoparib (NSC767125), berzosertib (NSC777718), elimusertib (NSC800525), nedisertib (NSC802822), VX-984 (NSC792969), AZD-1390 (NSC803789), temozolomide (NSC362856), topotecan (NSC609699), trabectedin (NSC813783), staurosporine (NSC755774), and gemcitabine (NSC613327) were obtained from the National Cancer Institute (NCI) Developmental Therapeutics Program Chemical Repository. The FDA-approved anticancer drug set is available from the Developmental Therapeutics Program at https://dtp.cancer.gov/organization/dscb/obtaining/available_plates.htm. […] The stock solutions were prepared in dimethyl sulfoxide (DMSO, Sigma-Aldrich, St. Louis, MO, cat. D2650) at 400-fold the tested concentration and stored at -70 degrees C. Prior to their use, the stock solutions were diluted in fresh medium and the final DMSO concentration in the assay was 0.25% (v/v). All drugs and investigational agents were tested over a range starting from a high concentration at or near the clinical Cmax and decreasing in half-log increments. If the clinical Cmax for an agent had not been determined, the highest concentration tested was 10 microM.
Cell Lines. The patient-derived cancer cell (PDC) lines: 156681-154-R-J1-PDC, 283228-195-R-J1-PDC, 287954-098-R-J1-PDC, 292921-168-R-J2-PDC, 349418-098-R-PDC, 425362-245-T-J1-PDC, 556581-035-R-J1-PDC, and BL0293-F563-PDC were received from the NCI Patient-Derived Models Repository (PDMR, https://pdmr.cancer.gov). The established cell lines HS-SY-2 (RRID:CVCL_8719), MPNST, and SYO-1 (RRID:CVCL_7146) were obtained from the Sloan Kettering Institute. The alveolar soft parts sarcoma cell line ASPS-1 (RRID:CVCL_S738) was established at the NCI and grown from internal seed stocks. The following established cell lines were purchased from the American Type Culture Collection (ATCC, Manassas, VA): G-401 (ATCC, cat. CRL-1441, RRID:CVCL_0270), SW982 (ATCC, cat. HTB-93, RRID:CVCL_1734), VA-ES-BJ (ATCC, cat. CRL-2138, RRID:CVCL_1785), NCI-H719 (ATCC, cat. CRL-5837, RRID:CVCL_1582), NCI-H196 (ATCC, cat. CRL-5823, RRID:CVCL_1509), NCI-H841 (ATCC, cat. CRL-5845, RRID:CVCL_1595), NCI-H1618 (ATCC, cat. CRL-5879, RRID:CVCL_1480), NCI-H1876 (ATCC, cat. CRL-5902, RRID:CVCL_1503), DMS 114 (ATCC, cat. CRL-2066; RRID:CVCL_1174), NCI-H211 (ATCC, cat. CRL-5824; RRID:CVCL_1529), and SW 1271 (ATCC, cat. CRL-2177, RRID:CVCL_1716). The small cell lung cancer cell line COR-L88 was purchased from Sigma-Aldrich (cat. 92031917-1VL, RRID:CVCL_1141). The non-small cell lung cancer cell lines NCI-H226 (RRID:CVCL_1544) and NCI-H322M (RRID:CVCL_1557) were established at the NCI and grown from internal seed stocks. Pooled donor human umbilical vein endothelial cells (HUVEC, Lonza, cat. CC-2519) and human mesenchymal stem cells (hMSC, Lonza, cat. PT-2501) were purchased from Lonza (Walkersville, MD).
Cell Culture. All cells were maintained in an incubator at 37 degrees C and 5% CO2 with 95% humidity. […]
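Also: spheroids exposed to agents for 7 days.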

CNCc1ccc(-c2cc(-c3nc(-c4ccc(S(=O)(=O)C(C)C)cc4)cnc3N)on2)cc1 + Cn1nnc2c(C(N)=O)ncn2c1=O
IC50 (second compound 1 µM): 82.2 nM
IC50 (second compound 3.16 µM): 142 nM
IC50 (second compound 10 µM): 120 nM
IC50 (second compound 31.6 µM): 109 nM
IC50 (second compound 100 µM): 63.7 nM
viability, T/C (second compound 1 µM, first compound 0.00949 µM): 103%
viability, T/C (second compound 1 µM, first compound 0.03 µM): 89.2%
viability, T/C (second compound 1 µM, first compound 0.0949 µM): 45.2%
viability, T/C (second compound 1 µM, first compound 0.3 µM): 6.29%
viability, T/C (second compound 1 µM, first compound 0.949 µM): 3.41%
viability, T/C (second compound 1 µM, first compound 3 µM): 0.13%
viability, T/C (second compound 3.16 µM, first compound 0.00949 µM): 99.2%
viability, T/C (second compound 3.16 µM, first compound 0.03 µM): 93.1%
viability, T/C (second compound 3.16 µM, first compound 0.0949 µM): 72.2%
viability, T/C (second compound 3.16 µM, first compound 0.3 µM): 9.15%
viability, T/C (second compound 3.16 µM, first compound 0.949 µM): 3.94%
viability, T/C (second compound 3.16 µM, first compound 3 µM): 0.13%
viability, T/C (second compound 10 µM, first compound 0.00949 µM): 111%
viability, T/C (second compound 10 µM, first compound 0.03 µM): 101%
viability, T/C (second compound 10 µM, first compound 0.0949 µM): 61%
viability, T/C (second compound 10 µM, first compound 0.3 µM): 9.28%
viability, T/C (second compound 10 µM, first compound 0.949 µM): 2.96%
viability, T/C (second compound 10 µM, first compound 3 µM): 0.12%
viability, T/C (second compound 31.6 µM, first compound 0.00949 µM): 95.4%
viability, T/C (second compound 31.6 µM, first compound 0.03 µM): 105%
viability, T/C (second compound 31.6 µM, first compound 0.0949 µM): 56.2%
viability, T/C (second compound 31.6 µM, first compound 0.3 µM): 7.24%
viability, T/C (second compound 31.6 µM, first compound 0.949 µM): 2.97%
viability, T/C (second compound 31.6 µM, first compound 3 µM): 0.11%
viability, T/C (second compound 100 µM, first compound 0.00949 µM): 92.7%
viability, T/C (second compound 100 µM, first compound 0.03 µM): 81.9%
viability, T/C (second compound 100 µM, first compound 0.0949 µM): 33.1%
viability, T/C (second compound 100 µM, first compound 0.3 µM): 4.28%
viability, T/C (second compound 100 µM, first compound 0.949 µM): 4.13%
viability, T/C (second compound 100 µM, first compound 3 µM): 0.16%
